Literature values in patent US6989450B2 (priority 2000, dated 2006).
Where two headings read alike, the source gives them in different places.

What was measured:
[1] = system: multidrug resistant cell lines
[2] = system: P-glycoprotein expressing KBV-1 cells; conditions: P-glycoprotein (MDR protein) expressing KBV-1 cells
[3] = water solubility; comparison with taxol
[4] = biological target: microtubule, or polymeric, form of tubulin; conditions: binding to polymeric tubulin

Row | KD [4] | SMILES | potency relative to Taxol [1] | IC50 [2] [µM] | solubility [3] | potency relative to Taxol ([1]; multidrug resistant cell lines / cancerous cells with acquired multiple drug resistance) | potency relative to Taxol ([1]; multidrug resistant cell lines / cancerous cells with acquired multiple drug resistance, listed as 1)
1 |  | C/C(=C\c1csc(C)n1)[C@@H]1C[C@@H]2O[C@@H]2CCC[C@H](C)[C@H](O)[C@@H](C)C(=O)C(C)(C)[C@@H](O)CC(=O)O1 [Epothilone A] | thousand-fold more potent |  |  |  | 
2 |  | C/C(=C\c1csc(C)n1)[C@@H]1C[C@@H]2O[C@]2(C)CCC[C@H](C)[C@H](O)[C@@H](C)C(=O)C(C)(C)[C@@H](O)CC(=O)O1 [Epothilone B] |  | 0.058 | better solubility than taxol | thousand-fold more active than Taxol | thousand-fold more potent
3 | micromolar | CC(=O)O[C@H]1C(=O)[C@@]2(C)[C@H]([C@H](OC(=O)c3ccccc3)[C@]3(O)C[C@H](OC(=O)[C@H](O)[C@@H](NC(=O)c4ccccc4)c4ccccc4)C(C)=C1C3(C)C)[C@]1(OC(C)=O)CO[C@@H]1C[C@@H]2O [Taxol] |  | 23 |  |  | 
